Laboratory results published in ChEMBL document CHEMBL5136974, “VHL-based PROTACs as potential therapeutic agents: Recent progress and perspectives” (Eur J Med Chem, 2022).
Each block holds one compound with its values, some of them ahead of it.

Experiments:
[1] = target: von Hippel-Lindau disease tumor suppressor/GTPase KRas (Homo sapiens, UniProt P01116+P40337, G12C); test: Protac activity at VHL/KRAS G12C mutant (unknown origin); assay type: protein assay
Polycomb protein EED = Polycomb protein EED (Homo sapiens, UniProt O75530); test: Binding affinity to EED (unknown origin) assessed as dissociation constant
[2] = Inhibition of PRC2 (unknown origin); design: species or system Homo sapiens
[3] = target: ALK tyrosine kinase receptor (Homo sapiens, UniProt Q9UM73); test: Inhibition of ALK (unknown origin) incubated for 1 hr by HTRF assay
[4] = target: NPM/ALK (Nucleophosmin/ALK tyrosine kinase receptor) (Homo sapiens) (UniProt Q9UM73+P06748); test: Inhibition of NPM-ALK in human SU-DHL-1 cells at […] relative to control; assay type: cell-based
[5] = test system: von Hippel-Lindau disease tumor suppressor/Epidermal growth factor receptor (Homo sapiens), P00533+P40337 [L858R,T790M]; test: Protac activity against VHL/geftinib-resistant EGFR L858R/T790M double mutant in human H1975 cells relative to control; assay type: cell-based; conditions: NCI-H1975
[6] = target: von Hippel-Lindau disease tumor suppressor/Focal adhesion kinase 1 (Homo sapiens) (UniProt Q05397+P40337); test: Protac activity at VHL/FAK in serum-free treated human PC-3 cells assessed as degradation of FAK measured after 24 hrs relative to control; assay type: cell-based
[7] = target: T1, von Hippel-Lindau disease tumor suppressor/Serine/threonine-protein kinase Sgk3 (Homo sapiens) (UniProt Q96BR1+P40337); test: Protac activity at VHL/SGK3 in human HEK293 cells at […] measured within 2 hrs relative to control; assay type: cell-based
[8] = target: T1, von Hippel-Lindau disease tumor suppressor/Serine/threonine-protein kinase Sgk3 (Homo sapiens); test: Protac activity at VHL/SGK3 in human HEK293 cells at […] measured within 8 hrs relative to control; assay type: cell-based
[9] = Inhibition of BRAF mutant (unknown origin); design: species or system Homo sapiens
[10] = target: Serine/threonine-protein kinase B-raf (Homo sapiens) (UniProt P15056); test: Inhibition of BRAF mutant (unknown origin) relative to control
[11] = target: von Hippel-Lindau disease tumor suppressor/Oxysterols receptor LXR-beta (Homo sapiens, UniProt P40337+P55055); test: Protac activity at VHL/LXR (unknown origin) by TR-FRET assay
[12] = target: T2, von Hippel-Lindau disease tumor suppressor/Epidermal growth factor receptor (Homo sapiens, UniProt P00533+P40337); test: Protac activity against VHL/EGFR in human OVCAR-8 cells assessed as degradation of EGFR; assay type: cell-based
[13] = target: T2, von Hippel-Lindau disease tumor suppressor/Epidermal growth factor receptor; test: Protac activity against VHL/EGFR in human OVCAR-8 cells assessed as degradation of EGFR relative to control; assay type: cell-based
SK-BR-3 = test: Antiproliferative activity against human SK-BR-3 cells; assay type: functional, cell-based
[14] = target: Dihydroorotate dehydrogenase (quinone), mitochondrial (Homo sapiens, UniProt Q02127); test: Inhibition of DHODH (unknown origin)
[15] = target: T3, von Hippel-Lindau disease tumor suppressor/Cyclin-dependent kinase 6 (Homo sapiens, UniProt Q00534+P40337); test: Protac activity at VHL/CDK6 in human MM1.S cells assessed as degradation of CDK6 measured after 16 hrs; assay type: cell-based
[16] = target: von Hippel-Lindau disease tumor suppressor/Cyclin-dependent kinase 4 (Homo sapiens, UniProt P11802+P40337); test: Protac activity at VHL/CDK4 in human MM1.S cells assessed as degradation of CDK4 measured after 16 hrs; assay type: cell-based
[17] = target: T3, von Hippel-Lindau disease tumor suppressor/Cyclin-dependent kinase 6; test: Protac activity at VHL/CDK6 in human MM1.S cells assessed as degradation of CDK6 at 100 nM relative to control; assay type: cell-based
Target sequence in this assay (P40337 whole entry, looked up): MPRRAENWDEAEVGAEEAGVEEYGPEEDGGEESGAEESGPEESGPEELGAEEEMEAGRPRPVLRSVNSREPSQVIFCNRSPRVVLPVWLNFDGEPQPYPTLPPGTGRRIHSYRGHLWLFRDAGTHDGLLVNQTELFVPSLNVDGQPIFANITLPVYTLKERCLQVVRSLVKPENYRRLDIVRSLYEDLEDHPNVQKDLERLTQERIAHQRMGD
Target sequence in this assay (Q00534 whole entry, looked up): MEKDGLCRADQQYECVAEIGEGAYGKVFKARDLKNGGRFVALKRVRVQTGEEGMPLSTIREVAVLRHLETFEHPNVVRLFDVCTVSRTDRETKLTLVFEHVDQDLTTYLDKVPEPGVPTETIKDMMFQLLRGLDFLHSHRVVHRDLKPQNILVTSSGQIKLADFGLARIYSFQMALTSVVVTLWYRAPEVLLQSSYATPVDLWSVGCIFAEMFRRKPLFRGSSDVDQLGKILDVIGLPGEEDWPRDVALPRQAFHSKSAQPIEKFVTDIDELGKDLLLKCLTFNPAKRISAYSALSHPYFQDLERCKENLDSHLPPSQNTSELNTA

[18] = target: T4, von Hippel-Lindau disease tumor suppressor/Androgen receptor (Homo sapiens, UniProt P10275+P40337); test: Protac activity at VHL/androgen receptor (unknown origin) assessed as degradation of androgen receptor; assay type: protein assay
[19] = target: T4, von Hippel-Lindau disease tumor suppressor/Androgen receptor; test: Protac activity at VHL/full length androgen receptor (unknown origin) assessed as degradation of androgen receptor
[20] = target: von Hippel-Lindau disease tumor suppressor/3-hydroxy-3-methylglutaryl-coenzyme A reductase (Homo sapiens, UniProt P04035+P40337); test: Protac activity at VHL/HMGCR in Insig-silenced human HepG2 cells; assay type: cell-based
HT-29 = test: Antiproliferative activity against human HT-29 cells; assay type: functional, cell-based
SK-MEL-28 = test: Antiproliferative activity against human SK-MEL-28 cells; assay type: functional, cell-based
MV4-11 = test: Antiproliferative activity against human MV4-11 cells; assay type: functional, cell-based
MOLM-14 = test: Antiproliferative activity against human MOLM-14 cells; assay type: functional, cell-based
[21] = target: T5, von Hippel-Lindau disease tumor suppressor/Estrogen receptor (Homo sapiens, UniProt P03372+P40337); test: Protac activity at VHL/ER (unknown origin) assessed as degradation of ER
Target sequence in this assay (P03372 whole entry): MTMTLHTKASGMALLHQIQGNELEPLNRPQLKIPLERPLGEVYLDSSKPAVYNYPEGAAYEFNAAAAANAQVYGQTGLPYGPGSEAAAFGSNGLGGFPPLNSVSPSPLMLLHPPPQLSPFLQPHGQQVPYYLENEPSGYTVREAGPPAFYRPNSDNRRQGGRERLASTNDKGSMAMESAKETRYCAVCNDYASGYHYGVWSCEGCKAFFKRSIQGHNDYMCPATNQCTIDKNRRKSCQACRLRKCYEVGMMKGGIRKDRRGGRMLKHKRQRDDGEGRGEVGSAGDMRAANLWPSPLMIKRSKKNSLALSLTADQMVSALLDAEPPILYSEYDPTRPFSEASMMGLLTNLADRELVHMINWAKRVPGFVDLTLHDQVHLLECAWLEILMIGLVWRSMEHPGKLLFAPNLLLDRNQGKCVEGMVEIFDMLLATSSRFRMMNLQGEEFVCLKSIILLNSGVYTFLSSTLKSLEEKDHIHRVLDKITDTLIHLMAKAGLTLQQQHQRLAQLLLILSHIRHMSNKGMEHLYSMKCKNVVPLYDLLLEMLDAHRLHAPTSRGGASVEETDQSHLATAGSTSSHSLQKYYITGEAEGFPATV
Target sequence in this assay (P40337 whole entry): as the sequence (P40337 whole entry, looked up) above

[22] = target: T5, von Hippel-Lindau disease tumor suppressor/Estrogen receptor; test: Protac activity at VHL/ER (unknown origin) assessed as degradation of ER relative to control
Target sequence in this assay (P03372 whole entry, looked up): as the sequence (P03372 whole entry) above
Target sequence in this assay (P40337 whole entry, looked up): as the sequence (P40337 whole entry, looked up) above

MCF7 [23] = test: Antiproliferative activity against human MCF7 cells; assay type: functional, cell-based
MCF7 [24] = test: Antiproliferative activity against human MCF7 cells relative to control; assay type: functional
[25] = target: T2, von Hippel-Lindau disease tumor suppressor/Epidermal growth factor receptor; test: Protac activity against VHL/EGFR deletion 19 mutant in human HCC827 cells; assay type: cell-based
[26] = test system: von Hippel-Lindau disease tumor suppressor/Epidermal growth factor receptor (Homo sapiens), P00533+P40337 [UNDEFINED MUTATION]; test: Protac activity against VHL/EGFR deletion 19 mutant in human HCC827 cells relative to control; assay type: cell-based
[27] = target: von Hippel-Lindau disease tumor suppressor/Epidermal growth factor receptor (Homo sapiens, UniProt P00533+P40337, L858R); test: Protac activity against VHL/EGFR L858R mutant in human […] cells; assay type: cell-based
[28] = test system: von Hippel-Lindau disease tumor suppressor/Epidermal growth factor receptor (Homo sapiens), P00533+P40337 [L858R]; test: Protac activity against VHL/EGFR L858R mutant in human […] cells relative to control; assay type: cell-based
[29] = target: T6, Receptor-interacting serine/threonine-protein kinase 2 (Homo sapiens, UniProt O43353); test: Degradation of RIPK2 (unknown origin)
[30] = target: T6, Receptor-interacting serine/threonine-protein kinase 2; test: Degradation of RIPK2 (unknown origin) at more than 10 nM relative to control

von Hippel-Lindau disease tumor suppressor/Oxysterols receptor LXR-beta, sequence (P55055 whole entry): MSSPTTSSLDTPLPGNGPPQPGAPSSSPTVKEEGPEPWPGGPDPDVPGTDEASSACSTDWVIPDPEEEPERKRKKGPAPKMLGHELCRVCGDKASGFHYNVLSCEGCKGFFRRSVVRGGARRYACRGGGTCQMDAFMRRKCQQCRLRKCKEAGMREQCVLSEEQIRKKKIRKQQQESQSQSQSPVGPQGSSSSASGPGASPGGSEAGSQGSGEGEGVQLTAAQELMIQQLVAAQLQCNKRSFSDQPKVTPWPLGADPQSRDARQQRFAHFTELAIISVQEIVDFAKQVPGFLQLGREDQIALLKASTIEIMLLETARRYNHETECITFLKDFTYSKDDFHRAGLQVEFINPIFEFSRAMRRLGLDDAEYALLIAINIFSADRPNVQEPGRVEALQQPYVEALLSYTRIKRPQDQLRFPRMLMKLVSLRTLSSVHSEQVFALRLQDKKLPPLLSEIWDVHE
von Hippel-Lindau disease tumor suppressor/Oxysterols receptor LXR-beta, sequence (P40337 whole entry): as the sequence (P40337 whole entry, looked up) above
Polycomb protein EED, sequence (O75530 whole entry): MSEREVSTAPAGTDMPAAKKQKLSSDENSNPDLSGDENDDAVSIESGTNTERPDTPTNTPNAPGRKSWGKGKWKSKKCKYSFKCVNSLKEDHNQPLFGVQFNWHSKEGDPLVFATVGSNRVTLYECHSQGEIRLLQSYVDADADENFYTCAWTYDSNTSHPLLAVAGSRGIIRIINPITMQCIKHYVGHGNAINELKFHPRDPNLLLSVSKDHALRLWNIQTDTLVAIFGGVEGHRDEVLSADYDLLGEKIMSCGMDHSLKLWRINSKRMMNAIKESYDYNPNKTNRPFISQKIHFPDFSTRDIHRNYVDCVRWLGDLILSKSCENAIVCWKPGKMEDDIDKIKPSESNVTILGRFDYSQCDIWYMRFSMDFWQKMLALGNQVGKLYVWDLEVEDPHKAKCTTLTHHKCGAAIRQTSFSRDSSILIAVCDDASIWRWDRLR
T6 sequence (O43353 whole entry): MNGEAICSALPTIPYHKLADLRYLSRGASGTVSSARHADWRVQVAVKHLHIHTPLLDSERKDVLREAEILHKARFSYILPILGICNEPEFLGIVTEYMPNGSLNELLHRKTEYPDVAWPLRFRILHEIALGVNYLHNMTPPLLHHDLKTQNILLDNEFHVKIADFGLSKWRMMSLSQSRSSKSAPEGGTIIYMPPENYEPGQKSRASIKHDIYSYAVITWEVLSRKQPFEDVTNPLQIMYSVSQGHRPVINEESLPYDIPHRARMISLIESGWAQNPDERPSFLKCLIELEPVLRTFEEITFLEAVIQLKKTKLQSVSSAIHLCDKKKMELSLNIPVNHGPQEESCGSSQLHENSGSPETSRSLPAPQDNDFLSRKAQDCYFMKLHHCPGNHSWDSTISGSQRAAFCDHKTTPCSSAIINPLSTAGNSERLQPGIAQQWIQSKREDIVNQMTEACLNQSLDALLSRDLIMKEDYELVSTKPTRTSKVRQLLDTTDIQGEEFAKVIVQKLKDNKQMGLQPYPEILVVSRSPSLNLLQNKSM
T1 sequence (P40337 whole entry, looked up): as the sequence (P40337 whole entry, looked up) above
T1 sequence (Q96BR1 whole entry, looked up): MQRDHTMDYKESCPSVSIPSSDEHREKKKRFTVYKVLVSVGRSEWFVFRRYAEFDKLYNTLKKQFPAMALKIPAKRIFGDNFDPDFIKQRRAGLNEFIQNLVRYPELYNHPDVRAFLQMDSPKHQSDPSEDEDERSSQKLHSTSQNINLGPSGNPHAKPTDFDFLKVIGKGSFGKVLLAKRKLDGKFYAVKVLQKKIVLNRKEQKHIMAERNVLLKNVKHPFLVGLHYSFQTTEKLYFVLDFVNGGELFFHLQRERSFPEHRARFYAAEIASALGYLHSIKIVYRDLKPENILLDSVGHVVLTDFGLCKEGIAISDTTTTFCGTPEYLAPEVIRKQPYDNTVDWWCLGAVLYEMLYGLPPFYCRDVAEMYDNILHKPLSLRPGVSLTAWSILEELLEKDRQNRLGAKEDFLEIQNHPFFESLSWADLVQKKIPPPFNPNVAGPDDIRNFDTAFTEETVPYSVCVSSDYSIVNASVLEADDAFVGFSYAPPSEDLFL
Dihydroorotate dehydrogenase (quinone), mitochondrial, sequence (Q02127 whole entry): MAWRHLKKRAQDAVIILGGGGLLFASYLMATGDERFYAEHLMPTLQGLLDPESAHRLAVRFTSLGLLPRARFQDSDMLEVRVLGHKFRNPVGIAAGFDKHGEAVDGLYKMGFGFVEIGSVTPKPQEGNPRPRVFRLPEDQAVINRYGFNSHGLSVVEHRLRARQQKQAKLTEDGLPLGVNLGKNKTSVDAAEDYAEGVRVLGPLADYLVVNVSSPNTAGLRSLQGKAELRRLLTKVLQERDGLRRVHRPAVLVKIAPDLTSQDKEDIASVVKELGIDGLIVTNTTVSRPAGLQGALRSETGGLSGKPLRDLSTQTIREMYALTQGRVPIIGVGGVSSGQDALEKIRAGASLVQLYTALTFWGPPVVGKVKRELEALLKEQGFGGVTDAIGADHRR

Emax [6]: 99%
Structure (SMILES): Cc1ncsc1-c1ccc(CNC(=O)[C@@H]2C[C@@H](O)CN2C(=O)[C@@H](NC(=O)CCOCCOc2ccc(Nc3ncc(C(F)(F)F)c(NCc4cccc(N(C)S(C)(=O)=O)c4)n3)cc2)C(C)(C)C)cc1

Kd (Polycomb protein EED): 1 nM
pIC50 [2]: 8.1
Structure (SMILES): Cc1nc(CCC(=O)NCCOc2ccc(OCC(=O)N[C@H](C(=O)N3C[C@H](O)C[C@H]3C(=O)NCc3ccc(-c4scnc4C)cc3)C(C)(C)C)cc2)ccc1-c1cnc(NCc2c(F)ccc3c2CCO3)n2cnnc12

DC50 [12]: 39.2 nM
Emax [13]: 97.6%
IC50 (SK-BR-3): 102 nM
Structure (SMILES): Cc1ncsc1-c1ccc(CNC(=O)[C@@H]2C[C@@H](O)CN2C(=O)[C@@H](NC(=O)COCCOCCOc2ccc(-c3ccc4ncnc(Nc5ccc(OCc6cccc(F)c6)c(Cl)c5)c4c3)cc2)C(C)(C)C)cc1

IC50 [14]: > 200000 nM
Structure (SMILES): COC(=O)c1c(C)c(-c2ccc(-c3ccc(OCCOCCOCCOC(=O)N[C@H](C(=O)N4C[C@H](O)C[C@H]4C(=O)NCc4ccc(-c5scnc5C)cc4)C(C)(C)C)cc3)cc2)nc2ccc(F)cc12

IC50 (MV4-11): 0.6 nM
IC50 (MOLM-14): 0.6 nM
Structure (SMILES): Cc1ncsc1-c1ccc(CNC(=O)[C@@H]2C[C@@H](O)CN2C(=O)[C@@H](NC(=O)CCOCCOCCOc2ccc3c(c2)sc2nc(-c4ccc(NC(=O)Nc5cc(C(C)(C)C)on5)cc4)cn23)C(C)(C)C)cc1

IC50 [14]: 93 nM
Structure (SMILES): Cc1ncsc1-c1ccc(CNC(=O)[C@@H]2C[C@@H](O)CN2C(=O)[C@@H](NC(=O)OCCOCCOCCOc2ccc(-c3ccc(-c4nc5ccc(F)cc5c(C(=O)O)c4C)cc3)cc2)C(C)(C)C)cc1

DC50 [29]: 1.4 nM
Emax [30]: > 95%
Structure (SMILES): Cc1ncsc1-c1ccc(CNC(=O)[C@@H]2C[C@@H](O)CN2C(=O)[C@@H](NC(=O)COCCOCCOCCOCCOc2cc3nccc(Nc4ccc5scnc5c4)c3cc2S(=O)(=O)C(C)(C)C)C(C)(C)C)cc1

Further lines, the compound ahead of its results:

Structure (SMILES): C=C(F)C(=O)N1CCN(c2nc(OC[C@@H]3CCCN3CCCOCCC(=O)N[C@H](C(=O)N3C[C@H](O)C[C@H]3C(=O)NCc3ccc(-c4scnc4C)cc3)C(C)(C)C)nc3c2CCN(c2cccc4cccc(Cl)c24)C3)C[C@@H]1CC#N
DC50 [1]: 250 nM

Structure (SMILES): Cc1nc(CCC(=O)NCCCCC(=O)N[C@H](C(=O)N2C[C@H](O)C[C@H]2C(=O)NCc2ccc(-c3scnc3C)cc2)C(C)(C)C)ccc1-c1cnc(NCc2c(F)ccc3c2CCO3)n2cnnc12
Kd (Polycomb protein EED): 1 nM
pIC50 [2]: 8.1

Structure (SMILES): Cc1cc(Nc2ncc(Cl)c(Nc3ccccc3S(=O)(=O)C(C)C)n2)c(OC(C)C)cc1C1CCN(C(=O)CCCC(=O)N[C@H](C(=O)N2C[C@H](O)C[C@H]2C(=O)NCc2ccc(-c3scnc3C)cc2)C(C)(C)C)CC1
IC50 [3]: 7 nM
inhibition [4]: 90%

Structure (SMILES): Cc1ncsc1-c1ccc(CNC(=O)[C@@H]2C[C@@H](O)CN2C(=O)[C@@H](NC(=O)CCCCCOCCCCOCCCCOc2cc3ncnc(Nc4ccc(F)c(Cl)c4)c3cc2NC(=O)/C=C/CN(C)C)C(C)(C)C)cc1
Emax [5]: 79.1%

Structure (SMILES): Cc1ccc(F)c(S(=O)(=O)Nc2ccc(-c3nc(OC[C@H]4CN(CCCCCCOCCOCCOCC(=O)N[C@H](C(=O)N5C[C@H](O)C[C@H]5C(=O)NCc5ccc(-c6scnc6C)cc5)C(C)(C)C)CCO4)c4cn[nH]c4n3)cc2)c1
Activity [7]: 50%
Activity [8]: 80%

Structure (SMILES): CCCS(=O)(=O)Nc1ccc(F)c(C(=O)c2c[nH]c3ncc(-c4ccc(N5CCN(CC(=O)N[C@H](C(=O)N6C[C@H](O)C[C@H]6C(=O)NCc6ccc(-c7scnc7C)cc6)C(C)(C)C)CC5)cc4)cc23)c1F
IC50 [9]: 6.8 nM
Emax [10]: > 95%

Structure (SMILES): Cc1ncsc1-c1ccc(CNC(=O)[C@@H]2C[C@@H](O)CN2C(=O)[C@@H](NC(=O)COCCOCCOCCOCCOCCNC(=O)Cc2cccc(OCCCN(Cc3cccc(C(F)(F)F)c3Cl)CC(c3ccccc3)c3ccccc3)c2)C(C)(C)C)cc1
EC50 [11]: 31 nM

Structure (SMILES): CC(=O)c1c(C)c2cnc(Nc3ccc(N4CCN(CCOCCOCCOc5cc(-c6scnc6C)ccc5CNC(=O)[C@@H]5C[C@@H](O)CN5C(=O)[C@@H](NC(=O)C5(F)CC5)C(C)(C)C)CC4)cn3)nc2n(C2CCCC2)c1=O
DC50 [15]: 5.1 nM
DC50 [16]: 20 nM
Activity [17]: > 95%

Structure (SMILES): Cc1ncsc1-c1ccc([C@H](C)NC(=O)[C@@H]2C[C@@H](O)CN2C(=O)[C@@H](NC(=O)CCCCCNC(=O)COc2ccccc2-c2csc(N3CCOCC3)n2)C(C)(C)C)cc1
DC50 [18]: 370 nM
DC50 [19]: 2000 nM

Structure (SMILES): Cc1ncsc1-c1ccc(CNC(=O)[C@@H]2C[C@@H](O)CN2C(=O)[C@@H](NC(=O)CCCCCCCCCCNC(=O)O[C@H]2C[C@@H](C)C=C3C=C[C@H](C)[C@H](CC[C@@H](O)C[C@@H](O)CC(=O)O)[C@H]32)C(C)(C)C)cc1
DC50 [20]: 120 nM

Structure (SMILES): O=C(O)Cc1cccc(OCCCN(Cc2cccc(C(F)(F)F)c2Cl)CC(c2ccccc2)c2ccccc2)c1
EC50 [11]: 20 nM

Structure (SMILES): Cc1ncsc1-c1ccc([C@H](C)NC(=O)[C@@H]2C[C@@H](OC(=O)CCCCn3cc(CNC(=O)CC[C@H](NC(=O)c4ccc(NCc5cnc6nc(N)[nH]c(=O)c6n5)cc4)C(=O)O)nn3)CN2C(=O)[C@@H](NC(=O)CCCCCCCCCCNCCCONC(=O)c2ccc(F)c(F)c2Nc2ccc(I)cc2F)C(C)(C)C)cc1
IC50 (HT-29): 436 nM
IC50 (SK-MEL-28): 390 nM

Structure (SMILES): Cc1ncsc1-c1ccc([C@H](C)NC(=O)[C@@H]2C[C@@H](O)CN2C(=O)[C@@H](NC(=O)CCCCOc2ccc(CCNC(=O)c3ccc(C(=O)c4c(-c5ccc(O)cc5)sc5cc(O)ccc45)cc3)cc2)C(C)(C)C)cc1
DC50 [21]: 1.1 nM
Emax [22]: 98%
IC50 (MCF7 [23]): 13.2 nM
Imax (MCF7 [24]): 69%

Structure (SMILES): COc1cc2ncnc(Nc3ccc(F)c(Cl)c3)c2cc1OCCCCCOCCOCCC(=O)N[C@H](C(=O)N1C[C@H](O)C[C@H]1C(=O)NCc1ccc(-c2scnc2C)cc1)C(C)(C)C
DC50 [25]: 11.7 nM
Emax [26]: 98.9%
DC50 [27]: 22.3 nM
Emax [28]: 96.6%

Structure (SMILES): Cc1ncsc1-c1ccc([C@H](C)NC(=O)[C@@H]2C[C@@H](O)CN2C(=O)[C@@H](NC(=O)CCCCOc2ccc(/C=N/NC(=O)c3ccc(C(=O)c4c(-c5ccc(O)cc5)sc5cc(O)ccc45)cc3)cc2)C(C)(C)C)cc1 (stereo in doubt)
DC50 [21]: 10 nM
Emax [22]: 95%
